Patent publication EP0390762A1, “New bronchospasmolytic compounds and process for their preparation” (priority 1989, dated 1990)

Experiments:
[1] = test system: dyspnotic breathing in histamine; experiment: Duration of bronchodilating activity in conscious guinea pigs challenged with aerosolized histamine after tracheal instillation or inhalation; assay type: in vivo; details: for initial potency compared with salmeterol / initial potency compared with terbutaline: conscious guinea pigs, histamine challenge; for delay (in minutes) in the appearance of dyspnotic breathing in histamine 0.5 h after the administration / delay (in minutes) in the appearance of dyspnotic breathing in histamine 6 h after the administration: given intratracheally
Method: Concious guinea pigs were used in the study. The compounds according to Examples 1 and 2, salmeterol and terbutaline, were given by inhalation or by tracheal instillation whereafter the animals were challenged in a histamine mist after different time intervals.
The guinea pigs were placed in plastic boxes and the test compounds delivered by continuous flow nebulization during 15 minutes.
The animals were lightly anaesthetized by inhalation of Efrane. The test compounds were instilled by use of a thin cannula to the tracheal bifurcation. Controlled animals were instilled with saline.
After the administrations, according to one of the mentioned routes, the animals were placed in transparent plastic cages and challenged with aerosolized histamine. The mist was generated in a nebulizer from a solution containing 0.5-1.0x10⁻³ mol/l of histamine in 3% glycerol. This concentration produced a defined dyspnotic breathing, appearing in control animals within 2-3 minutes. This phase was usally indicated by observation, sometimes also a "blinded trial" or recorded by use of a strain-gauge belt (see 0.A.T. Olsson in Acta Allergologica 26, 438, 1971). An increasing amount of spasmolytic drug gives then rise to a dose-dependent prolongation of the ability of the animals to resist this histamine spasm. As soon as a dyspnotic breathing was established the guinea pigs were removed from the histamine milieu since the same animals have to be exposed to histamine not only after 30 minutes but also at 3, 6 and 9 hours after drug administration.
In some of the experiments the animals were challenged with methacholine instead of histamine to exclude the eventuality of an antihistaminic effect of the drugs tested.
The amounts instilled produce about equieffective protection (6 to 7 minutes) against a histamine provocation 30 minutes after the administration of the test compound. The degree of protection 6 hours after the instillation of the test compound indicates the duration of the bronchospasmolytic activity.

[2] = test system: histamine-elicited bronchospasm; experiment: Bronchospasmolytic effect (reduction of intratracheal pressure, ITP) in anaesthetized guinea pigs; assay type: in vivo; details: for dose-related inhibition of the histamine-elicited bronchospasm: after injection as well as after inhalation; for reduction of ITP: 3 minutes before histamine infusion
Method: (§1) Guinea pigs of either sex were used in the study. The anaesthesia was produced by intravenous pentobarbital, The trachea was cannulated and the animals articificially ventilated by a constant volume respiratory. The intratracheal pressure (ITP) was measured by a pressure transducer. An increase in ITP, above the basic pressure level, indicating a respiratory spasm, was elicited by histamine infused in a jugular vein during 20 sec. every 7 minutes and in amounts producing a peak-ITP in the range 4-6 kPa. To trace cardiovascular effects from used drugs the blood pressure was recorded from a carotide artery via a pressure transducer. The pulse wave, indicating the rate, was triggering a tachograph recording the heart frequency.
(§2) The test compounds were injected 3 minutes before a histamine infusion and the decrease in percent of the intratracheal pressure (ITP) was taken as a measure of the bronchospasmolytic activity. The influence on heart-rate was evaluated after cumultative injections; a new injection was given when the preceding one had produced a steady state in the rate.
(§3) The test compounds were nebulized and the mist produced was led to the animal through the respirator and tracheal cannula. Inhalation continued for 15 mintues for each concentration of the test compounds. The bronchodilating effect […] was calculated as percent reduction in ITP. The effect on heart-rate was determined after a cumultative increase in the concentrations of the nebulized solutions. Effect measurements were made at steady state, and three different concentrations were used.

heart-rate = experiment: Heart-stimulating effect (heart-rate) in anaesthetized guinea pigs; assay type: in vivo
Method: as §1, §2, §3

[3] = inhalation therapy; cited from earlier work

For `OCc1cc(C(O)CNCCCCCCOCCCCc2ccccc2)ccc1O` (centres unmarked) [salmeterol], the “duration of activity compared with terbutaline” value ([1]; calculated from an equipotent level) was “prolonged”, the “dose-related inhibition of the histamine-elicited bronchospasm” value (from here on “dose-related inhibition”) [2] was “inhibition of the histamine-elicited bronchospasm” and the “reduction of ITP” value ([2]; injection of 5x10⁻¹⁰ mol/kg) was “about 50 per cent”. For the same compound, the “potency compared with the other two drugs (compound of Example 2, terbutaline)” value ([2]; when inhaled) was “about five times”, the “potency compared with the other two drugs (compound of Example 2, terbutaline)” value ([2]; when injected) was “at least ten times higher” and the “increase of the heart-rate” value (heart-rate; guinea pig, in vivo) was 15 beats/min. For the same compound, the “increase of the heart-rate” value (heart-rate; guinea pig, in vivo, iv) was “about 30 beats/min”.
For `COc1ccc(CNc2cc([C@@H](O)CN[C@@H](C)Cc3ccc4c(c3)OCO4)ccc2O)cc1` [(R,S), 1-(R)-(4-hydroxy-3-(p-methoxybenzylamino)phenyl)-2-[(1(S)-methyl-2-(3,4-methylenedioxyphenyl)ethyl)amino]ethanol], the “initial potency compared with salmeterol” value [1] was “approximately ten times less than for salmeterol”, the “initial potency compared with terbutaline” value [1] was “about the same as for terbutaline” and the “delay (in minutes) in the appearance of dyspnotic breathing in histamine 0.5 h after the administration” value ([1]; 5x10⁻⁹ mol/kg) was 6 min. For the same compound, the “delay (in minutes) in the appearance of dyspnotic breathing in histamine 6 h after the administration” value ([1]; 5x10⁻⁹ mol/kg) was 5 min.
With `COc1ccc(CNc2cc(C(O)CNC(C)Cc3ccc4c(c3)OCO4)ccc2O)cc1` [(R,S+S,S)] the “delay (in minutes) in the appearance of dyspnotic breathing in histamine 0.5 h after the administration” value ([1]; 1x10⁻⁸ mol/kg) was 6 min and the “delay (in minutes) in the appearance of dyspnotic breathing in histamine 6 h after the administration” value ([1]; 1x10⁻⁸ mol/kg) was 5 min.
In the case of `COc1ccc(CNc2cc(C(O)CNC(C)Cc3ccc4c(c3)OCO4)ccc2O)cc1` [(R,R+S,R)], the “delay (in minutes) in the appearance of dyspnotic breathing in histamine 0.5 h after the administration” value ([1]; 1x10⁻⁷ mol/kg) is reported as 7 min and the “delay (in minutes) in the appearance of dyspnotic breathing in histamine 6 h after the administration” value ([1]; 1x10⁻⁷ mol/kg) is reported as 3 min.
In the case of `CC(C)(C)NCC(O)c1cc(O)cc(O)c1` (centres unmarked) [Terbutaline, terbutaline], the duration of activity [3] is listed as 4 to 6 h, the “delay (in minutes) in the appearance of dyspnotic breathing in histamine 0.5 h after the administration” value ([1]; 1x10⁻⁷ mol/kg) is listed as 7 min and the “delay (in minutes) in the appearance of dyspnotic breathing in histamine 6 h after the administration” value ([1]; 1x10⁻⁷ mol/kg) is listed as 2 min. For the same compound, the “dose-related inhibition” value [2] was “inhibition of the histamine-elicited bronchospasm”, the “reduction of ITP” value ([2]; injection of 1x10⁻⁸ mol/kg) was “about 50 per cent” and the “effect on heart-rate relative to salmeterol and the compounds of the invention” value (heart-rate; guinea pig, in vivo) was “lies in between”. For the same compound, the “increase of the heart-rate” value (heart-rate; guinea pig, in vivo, iv) was “about 30 beats/min”.
For `CC(Cc1ccc(O)cc1)NCC(O)c1cc(O)cc(O)c1` (centres unmarked) [fenoterol], the duration of activity [3] is listed as 4 to 6 h.
For `COc1ccc(CNc2cc([C@@H](O)CN[C@H](C)Cc3ccc4c(c3)OCO4)ccc2O)cc1` [(R,R)], the “delay (in minutes) in the appearance of dyspnotic breathing in histamine 0.5 h after the administration” value ([1]; 5x10⁻⁸ mol/kg) was 7 min and the “delay (in minutes) in the appearance of dyspnotic breathing in histamine 6 h after the administration” value ([1]; 5x10⁻⁸ mol/kg) was 3 min.
For `Cc1ccc(C(=O)Oc2ccc(C(O)CNC(C)(C)C)cc2OC(=O)c2ccc(C)cc2)cc1` (centres unmarked) [bitolterol], the duration of activity [3] is given as 4 to 6 h.
In the case of `COc1ccc(CNc2cc([C@@H](O)CN[C@@H](C)Cc3ccc4c(c3)OCO4)ccc2O)cc1` (racemic) [(R,S+S,R)], the “initial potency compared with salmeterol” value [1] is reported as “approximately ten times less than for salmeterol”, the “initial potency compared with terbutaline” value [1] is reported as “about the same as for terbutaline” and the “delay (in minutes) in the appearance of dyspnotic breathing in histamine 0.5 h after the administration” value ([1]; 1x10⁻⁸ mol/kg) is reported as 7 min. For the same compound, the “delay (in minutes) in the appearance of dyspnotic breathing in histamine 6 h after the administration” value ([1]; 1x10⁻⁸ mol/kg) was 6 min, the “dose-related inhibition” value [2] was “inhibition of the histamine-elicited bronchospasm” and the “reduction of ITP” value ([2]; injection of 5x10⁻⁹ mol/kg) was “about 50 per cent”. The “effect on heart rate compared with salmeterol” value (heart-rate; after inhalation) was “more reduced effect on heart rate” and the “relationship between the effect on the respiratory system and heart, compared with salmeterol” value (heart-rate; when the drugs are injected) was “the same”.
For `CC(C)(C)NCC(O)c1ccc(O)c(CO)c1` (centres unmarked) [salbutamol], the duration of activity [3] is given as 4 to 6 h.
